Experimental data from article PMC11292009, “Mapping protein binding sites by photoreactive fragment pharmacophores” (Communications Chemistry, 2024).
Several values for one entry are separate records, joined by “and”; a condition that tells them apart may be missing. Equal entries are not always repeated.

Assays:
Type in all cases: binding
[1] = tested on: carbonic anhydrase II (CA); assay: Intact protein MS photoaffinity labeling screen, carbonic anhydrase; settings: intact protein MS after 10 min irradiation
Method in brief: (§1)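 Fragments are tested singly per well. Protein and fragment incubate 15 min for non-covalent association, then the plate goes directly to intact protein mass spectrometry, where mass shifts matching fragment addition give the labeling %.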

BRD4-BD1 = tested on: T1, BRD4-BD1; assay: Intact MS photoaffinity labeling screen, BRD4-BD1 (302 nm, LCMS-TOF); settings: for MS labeling percentage, BRD4: BRD4-BD1, 302 nm 10 min
T1 construct: screened the PhP library against the first bromodomain of BRD4 (BRD4-BD1); purchased GSK/GenScript
Method in brief: (§2)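 Labeling detected as mass additions in deconvoluted intact-protein LCMS-TOF spectra. Protein at 1 μM in PBS was first mixed with one fragment per well on ice for 15 min, followed by 10 min UV exposure at 302 nm.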

KRas^G12D = tested on: T2, KRas^G12D; assay: Intact MS photoaffinity labeling screen, KRas G12D (302 nm, LCMS-TOF); settings: for MS labeling percentage, KRas: KRas G12D, 302 nm 10 min
T2 construct: purchased GSK/GenScript
Method in brief: as §2

lysozyme (Lyo) = assay: Intact protein MS photoaffinity labeling screen, lysozyme; settings: intact protein MS after 10 min irradiation
Method in brief: as §1

myoglobin (Myo) = assay: Intact protein MS photoaffinity labeling screen, myoglobin; settings: intact protein MS after 10 min irradiation
Method in brief: as §1

STAT5B-NTD [2] = tested on: T3, STAT5B-NTD; assay: Intact MS photoaffinity labeling screen, STAT5B-NTD (365 nm, UHPLC-MS);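 as to MS labeling percentage, STAT5B: 0.17 µL of 100 mM DMSO fragment stock added to the protein sample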
T3 construct: His-SUMO (N, cleaved yes); made in house; host or cells: E. coli BL21 RILP
Method in brief: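 Intact-protein labeling detected by UHPLC-MS in positive ion mode over m/z 100–2000. Samples were first photo-crosslinked at 365 nm for 10 min at 4 °C. Before irradiation, 7 µM STAT5B in PBS pH 7.4 was pre-incubated with probe for 1 h in the dark at room temperature.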

STAT5B-NTD [3] = tested on: T3, STAT5B-NTD; assay: Intact MS labeling screen, STAT5B-NTD conjugated with photocatalyst Ir-G2-PEG3-COOH (450 nm); settings: 450 nm 10 min;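 also: 0.14 µL of 100 mM DMSO fragment stock added to the conjugate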
Method in brief: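 Ir-G2-PEG3-COOH photocatalyst (10 eq) activated 30 min with EDC/NHS/BOP, then conjugated to STAT5B-NTD (7 µM) overnight at RT or 1 h at 37 °C in dark. PhP added, 1 h dark, then 450 nm irradiation 10 min at 4 °C; labeling read by intact LC-MS, positive ion mode, m/z 100–2000.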

[4] = tested on: CA, Lyo, Myo, BRD4-BD1, KRas G12D, STAT5B-NTD; assay: Intact MS labeling compared over all protein targets; settings: for Labeling of the other protein targets (vs. preferred target): each of the other targets
Method in brief: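 Each fragment incubated 15 min with protein, then UV-irradiated 10 min at 302 or 365 nm to crosslink. Labeling % read by intact-protein LC-TOF MS from mass additions. For BRD4-BD1 and KRas G12D, protein stock was 1 µM in PBS, fragment stock 20 mM, incubation was on ice and irradiation at 302 nm.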

[5] = sheet PhP, experimental hit status flag given as 0 or 1
[6] = PhP library sheet "PhP", binary flag printed as 0 or 1, key not given

| SMILES | MS labeling percentage, CA [1] [%] | BRD4-BD1 (experimental hit status) (BRD4-BD1; [5]) | MS labeling percentage, KRas (KRas^G12D) [%] | KRAS-G12D (experimental hit status) (KRas^G12D; [5]) | MS labeling percentage, Lyo (lysozyme (Lyo)) [%] | MS labeling percentage, Myo (myoglobin (Myo)) [%] | STAT5B-NTD (experimental hit status) (STAT5B-NTD [2]; [5]) | MS labeling percentage, STAT5B+photocat (STAT5B-NTD [3]) [%] | Labeling of the other protein targets (vs. preferred target) [4] | MS labeling percentage, BRD4 (BRD4-BD1) [%] | BRD4-BD1 (experimental hit status) (BRD4-BD1; [6]) | KRAS-G12D (experimental hit status) (KRas^G12D; [6]) | STAT5B-NTD (experimental hit status) (STAT5B-NTD [2]; [6]) | MS labeling percentage, STAT5B (STAT5B-NTD [2]; STAT5B-NTD, 365 nm 10 min, no photocatalyst) [%] | Labeling efficiency over all protein targets (mean ± spread) ([4]; over all protein targets) [%] |
| --- | --- | --- | --- | --- | --- | --- | --- | --- | --- | --- | --- | --- | --- | --- | --- |
| Cc1[nH]c2ccccc2c1SCCNC(=O)CCC1(C)N=N1 [PhP065, c1cccc(c12)c(c(C)[nH]2)SCCNC(=O)CCC3(C)N=N3] | 0.3 | 0 | 0.2 | 0 | 2.6 | 0.1 | 1 | 11.2 | > 3% and < 3% | – | – | – | – | – | – |
| CC1(CCC(=O)NCCc2csc(-c3ccccc3)n2)N=N1 [PhP097, N1=NC1(C)CCC(=O)NCCc2csc(n2)-c3ccccc3] | 0 | – | 0.2 | – | 1.8 | 0.1 | – | 4.2 | > 3% and < 3% | 0.5 | 0 | 0 | 1 | – | – |
| Cc1ncc(CO)c(CNC(=O)CCC2(C)N=N2)c1O [PhP072, Cc1ncc(CO)c(c1O)CNC(=O)CCC2(C)N=N2] | 7.7 | 1 | 12.2 | 1 | 1 | 3.3 | 0 | 3.3 | – | 2.2 | – | – | – | 0 | 4.4 ± 4.3 |
